# Reference: patent US10202367B2, “Heterocyclic compounds and methods of use thereof” (priority 2014, dated 2019)
# Test: Aqueous solubility in PBS
# Type: physicochemical
# Conditions: not given
row,Structure (SMILES),Sol.
1,Cc1ccccc1-c1nc(CN2CCC(C(=O)NCCCN3CC4CCCC(C4)C3)CC2)c(C)o1 [Compound 54],> .71 µg/mL
2,COc1cccc(OC)c1-c1nc(CN2CCC(C(=O)NCCCN3C[C@H](C)C[C@H](C)C3)CC2)c(C)o1 [Compound 37],>76.0 µg/mL
3,CCc1ccccc1-c1nc(CN2CCC(C(=O)NCCCN3C[C@H](C)C[C@H](C)C3)CC2)c(C)o1 [Compound 17],55.9 µg/mL
4,Cc1ccccc1-c1nc(CN2CCC(C(=O)NCCCN3CCOCC3)CC2)c(C)o1 [Compound 12],>65.0 µg/mL
5,Cc1ccc2ccccc2c1-c1nc(CN2CCC(C(=O)NCCCN3C[C@H](C)C[C@H](C)C3)CC2)c(C)o1 [Compound 62],>76.1 µg/mL
6,Cc1oc(-c2ccccc2Cl)nc1CN1CCC(C(=O)NCCCN2C[C@H](C)C[C@H](C)C2)CC1 [Compound 15],>72.0 µg/mL
7,Cc1ccccc1-c1nc(CN2CCC(C(=O)NCCCN3C[C@H](C)C[C@H](C)C3)CC2)c(C)o1 [Compound 64],>69.0 µg/mL
8,Cc1ccccc1-c1nc(CN2CCC(C(=O)N3CCN(CCN(C)C)CC3)CC2)c(C)o1 [Compound 14],>67.0 µg/mL
9,Cc1ccccc1-c1nc(CN2CCC(C(=O)NCCCN3CCC(C)(C)CC3)CC2)c(C)o1 [Compound 50],>69.0 µg/mL
10,Cc1ccccc1-c1nc(CN2CCC(C(=O)NCCCN3C[C@H](C)C[C@H](C)C3)CC2)c(C)s1 [Compound 65],>71.0 µg/mL

# Now from value to compound:
row,Sol.,Structure (SMILES)
1,>71.0 µg/mL,Cc1ccc(-c2nc(CN3CCC(C(=O)NCCCN4C[C@H](C)C[C@H](C)C4)CC3)c(C)o2)c(C)c1 [Compound 32]
2,>71.0 µg/mL,Cc1ccccc1-c1nc(CN2CCC(C(=O)NCCCN3CCC(C(C)C)CC3)CC2)c(C)o1 [Compound 5]
3,>67.0 µg/mL,Cc1ccccc1-c1nc(CN2CCC(C(=O)NCCCN3CCC(C)CC3)CC2)c(C)o1 [Compound 10]
4,54.9 µg/mL,Cc1ccccc1-c1nc(CN2CCC(C(=O)NCCCN3CCCC(CC(C)C)C3)CC2)c(C)o1 (stereo not drawn) [Compound 53]
5,>67.0 µg/mL,Cc1ccccc1-c1nc(CN2CCC(C(=O)NCCCN3CCCC(C)C3)CC2)c(C)o1 (stereo not drawn) [Compound 6]
6,>71 µg/mL,Cc1ccccc1-c1nc(CN2CCC(C(=O)NCCCN3CCCC(C(C)C)C3)CC2)c(C)o1 (stereo not drawn) [Compound 52]
7,>83.0 µg/mL,Cc1oc(-c2c(Cl)cccc2Br)nc1CN1CCC(C(=O)NCCCN2C[C@H](C)C[C@H](C)C2)CC1 [Compound 41]
8,>74 µg/mL,Cc1cccc(Cl)c1-c1nc(CN2CCC(C(=O)NCCCN3CCC(C)(C)CC3)CC2)c(C)o1 [Compound 60]
9,>83.0 µg/mL,COc1cccc(Br)c1-c1nc(CN2CCC(C(=O)NCCCN3C[C@H](C)C[C@H](C)C3)CC2)c(C)o1 [Compound 40]
10,>71.0 µg/mL,Cc1cc(C)cc(-c2nc(CN3CCC(C(=O)NCCCN4C[C@H](C)C[C@H](C)C4)CC3)c(C)o2)c1 [Compound 4]
11,>70 µg/mL,Cc1cc(-c2nc(CN3CCC(C(=O)NCCCN4C[C@H](C)C[C@H](C)C4)CC3)co2)ccc1F [Compound 70]
12,>72.0 µg/mL,Cc1oc(-c2cccc(Cl)c2)nc1CN1CCC(C(=O)NCCCN2C[C@H](C)C[C@H](C)C2)CC1 [Compound 24]
13,>72.0 µg/mL,Cc1oc(-c2c(F)cccc2F)nc1CN1CCC(C(=O)NCCCN2C[C@H](C)C[C@H](C)C2)CC1 [Compound 30]
14,55.9 µg/mL,Cc1cccc(C)c1-c1nc(CN2CCC(C(=O)NCCCN3C[C@H](C)C[C@H](C)C3)CC2)c(C)o1 [Compound 23]
15,>67.0 µg/mL,Cc1ccccc1-c1nc(CN2CCC(C(=O)NCCN3C[C@H](C)C[C@H](C)C3)CC2)c(C)o1 [Compound 20]

# Same assay, conditions: pH 7.4
row,Structure (SMILES),Sol.
1,Cc1oc(-c2c(Cl)cccc2Cl)nc1CN1CCC(C(=O)NCCCN2C[C@H](C)C[C@H](C)C2)CC1 [Compound 35],>77.0 µg/mL
2,Cc1oc(-c2c(Br)cccc2Br)nc1CN1CCC(C(=O)NCCCN2C[C@H](C)C[C@H](C)C2)CC1 [Compound 43],62.4 µg/mL
